Patent US20230128252A1, “PHARMACEUTICAL COMPOSITIONS” (Shenzhen Pharmacin Co., Ltd., priority 2020, published 2023)

Assays:
[1] = Compatibility of clofazimine and excipients (60° C., 3 days, HPLC); format: physicochemical
Procedure: Clofazimine was dissolved into different excipients with different mass ratios, then the mixture was placed in the condition of 60° C. for 3 days. The total degradation impurities were measured by HPLC and summarized below in Table 25. The excipients were classified by the results as below.

[2] = Skin permeability of clofazimine preparations (vertical Franz diffusion cells); format: in vitro ADME, NU/NU nude mice

## CC(C)/N=c1\cc2n(-c3ccc(Cl)cc3)c3ccccc3nc-2cc1Nc1ccc(Cl)cc1 [Clofazimine, N,5-bis(4-chlorophenyl)-3-propan-2-ylimino phenazin-2-amine]
[1]; 60° C. for 3 days, tween 80 + water (1:100:800)
  Degradation total impurities: >1%
[1]; lipid excipients such as PEG 3350, stearyl alcohol, vaseline, and liquid paraffin
  chemical stability of clofazimine in lipid excipients: enhanced chemical stability
[2]; Gel, PEG 400 10 wt %
  clofazimine content (Table 12, FIG. 3): 1.6000 μg/cm^2
[2]; Gel, Transcutol
  clofazimine content (Table 12, FIG. 3): 0.1894 μg/cm^2
[2]; Gel, Tween 80 10 wt %
  clofazimine content (Table 12, FIG. 3): 0.9800 μg/cm^2
[2]; Gel, labrasol 10 wt %
  clofazimine content (Table 12, FIG. 3): 0.8200 μg/cm^2
[2]; Solvents (solution), PEG 400 99.9 wt %
  clofazimine content (Table 12, FIG. 3): 0.2700 μg/cm^2
[2]; Solvents (solution), Transcutol
  clofazimine content (Table 12, FIG. 3): 0.0596 μg/cm^2
[2]; Solvents (solution), Tween 80 99.9 wt %
  clofazimine content (Table 12, FIG. 3): 0.2500 μg/cm^2
[2]; Solvents (solution), labrasol 99.9 wt %
  clofazimine content (Table 12, FIG. 3): 0.2600 μg/cm^2
[2]; gel: Carbomer 940 0.5, Transcutol 20, Lecithin 5 wt %, pH 7.0, clofazimine amount 0.01%
  clofazimine content: 0.0568 ug/cm^2
[2]; gel: Carbomer 940 0.5, Transcutol 20, Lecithin 5 wt %, pH 7.0, clofazimine amount 0.02%
  clofazimine content: 0.1971 ug/cm^2
[2]; gel: Carbomer 940 0.5, Transcutol 20, Lecithin 5 wt %, pH 7.0, clofazimine amount 0.05%
  clofazimine content: 0.5394 ug/cm^2
[2]; gel: Carbomer 940 0.5, Transcutol 20, Lecithin 5 wt %, pH 7.0, clofazimine amount 0.1%
  clofazimine content: 0.8014 ug/cm^2
[2]; gel: Carbomer 940 0.5, Transcutol 20, Lecithin 5 wt %, pH 7.0, clofazimine amount 0.2%
  clofazimine content: 0.7102 ug/cm^2
[2]; gel: Carbomer 940 0.5, Transcutol 20, Lecithin 5 wt %, pH 7.0, clofazimine amount 0.5%
  clofazimine content: 0.7512 ug/cm^2
[2]; gel: clofazimine 0.1, Carbomer 940 0.5, Transcutol 20, Lecithin 5 wt %, pH 6.0
  clofazimine content: 0.4246 ug/cm^2
[2]; gel: clofazimine 0.1, Carbomer 940 0.5, Transcutol 20, Lecithin 5 wt %, pH 7.0
  clofazimine content: 0.4146 ug/cm^2
[2]; gel: clofazimine 0.1, Carbomer 940 0.5, Transcutol 20, Lecithin 5 wt %, pH 8.0
  clofazimine content: 0.3463 ug/cm^2
[2]; gel: clofazimine 0.1, Carbomer 940 0.5, Transcutol 20, Lecithin 5 wt %, pH 9.0
  clofazimine content: 0.2970 ug/cm^2
[2]; gel: clofazimine 0.1, Carbomer 940 0.5, Transcutol 20, Lecithin 5 wt %, pH 9.5
  clofazimine content: 0.2463 ug/cm^2
[2]; gel: clofazimine 0.1, Carbomer 940 0.5, Transcutol 20 wt %, pH 7.0, Control (water instead of penetration enhancer)
  clofazimine content: 0.1331 ug/cm^2
[2]; gel: clofazimine 0.1, Carbomer 940 0.5, Transcutol 20 wt %, pH 7.0, lecithin 2%
  clofazimine content: 0.2272 ug/cm^2
[2]; gel: clofazimine 0.1, Carbomer 940 0.5, Transcutol 20 wt %, pH 7.0, lecithin 3%
  clofazimine content: 0.2745 ug/cm^2
[2]; gel: clofazimine 0.1, Carbomer 940 0.5, Transcutol 20 wt %, pH 7.0, lecithin 4%
  clofazimine content: 0.3026 ug/cm^2
[2]; gel: clofazimine 0.1, Carbomer 940 0.5, Transcutol 20 wt %, pH 7.0, lecithin 5%
  clofazimine content: 0.3578 ug/cm^2
[2]; gel: clofazimine 0.1, Carbomer 940 0.5, Transcutol 20 wt %, pH 7.0, lecithin 6%
  clofazimine content: 0.3335 ug/cm^2
[2]; gel: clofazimine 0.1, Carbomer 940 0.5, Transcutol 20 wt %, pH 7.0, lecithin 10%
  clofazimine content: 0.3968 ug/cm^2
[2]; gel: clofazimine 0.1, Carbomer 940 0.5, Transcutol 20 wt %, pH 7.0, lecithin 19%
  clofazimine content: 0.2989 ug/cm^2
[2]; gel: clofazimine 0.1, Carbomer 940 0.5, Transcutol 20 wt %, pH 7.0, penetration enhancer 4 wt %: DMSO
  clofazimine content: 0.1806 ug/cm^2
[2]; gel: clofazimine 0.1, Carbomer 940 0.5, Transcutol 20 wt %, pH 7.0, penetration enhancer 4 wt %: Ethanol
  clofazimine content: 0.2055 ug/cm^2
[2]; gel: clofazimine 0.1, Carbomer 940 0.5, Transcutol 20 wt %, pH 7.0, penetration enhancer 4 wt %: Lecithin
  clofazimine content: 0.9881 ug/cm^2
[2]; gel: clofazimine 0.1, Carbomer 940 0.5, Transcutol 20 wt %, pH 7.0, penetration enhancer 4 wt %: Octanol
  clofazimine content: 0.6230 ug/cm^2
[2]; gel: clofazimine 0.1, Carbomer 940 0.5, Transcutol 20 wt %, pH 7.0, penetration enhancer 4 wt %: Oleic acid
  clofazimine content: 0.2344 ug/cm^2
[2]; gel: clofazimine 0.1, Carbomer 940 0.5, Transcutol 20 wt %, pH 7.0, penetration enhancer 4 wt %: SDS (0.05%)
  clofazimine content: 0.1829 ug/cm^2
[2]; gel: clofazimine 0.1, Carbomer 940 0.5, Transcutol 20 wt %, pH 7.0, penetration enhancer 4 wt %: Tween 20
  clofazimine content: 0.1535 ug/cm^2
[2]; gel: clofazimine 0.1, Carbomer 940 0.5, Transcutol 20 wt %, pH 7.0, penetration enhancer 4 wt %: Tween 80
  clofazimine content: 0.2484 ug/cm^2
[2]; gel: clofazimine 0.1, Carbomer 940 0.5 wt %, pH 7.0, solvent 10 wt % PEG 400, 4 hours
  clofazimine content: 1.6000 ug/cm^2
[2]; gel: clofazimine 0.1, Carbomer 940 0.5 wt %, pH 7.0, solvent 10 wt % Transuctol, 4 hours
  clofazimine content: 0.1894 ug/cm^2
[2]; gel: clofazimine 0.1, Carbomer 940 0.5 wt %, pH 7.0, solvent 10 wt % Tween 80, 4 hours
  clofazimine content: 0.9800 ug/cm^2
[2]; gel: clofazimine 0.1, Carbomer 940 0.5 wt %, pH 7.0, solvent 10 wt % labrasol, 4 hours
  clofazimine content: 0.8200 ug/cm^2
[2]; gel: clofazimine 0.1, Transcutol 20, Lecithin 5 wt %, pH 7.0, Carbomer 940 amount 0.5%
  clofazimine content: 0.4871 ug/cm^2
[2]; gel: clofazimine 0.1, Transcutol 20, Lecithin 5 wt %, pH 7.0, Carbomer 940 amount 0.8%
  clofazimine content: 0.3054 ug/cm^2
[2]; gel: clofazimine 0.1, Transcutol 20, Lecithin 5 wt %, pH 7.0, Carbomer 940 amount 1.0%
  clofazimine content: 0.3205 ug/cm^2
[2]; inner skin, 4 hours, solution, clofazimine 100 mg in 99.9 g Ethanol
  clofazimine content: 0.5565 ug/cm^2
[2]; inner skin, 4 hours, solution, clofazimine 100 mg in 99.9 g KHS-15
  clofazimine content: 0.0660 ug/cm^2
[2]; inner skin, 4 hours, solution, clofazimine 100 mg in 99.9 g Laurocapram
  clofazimine content: 0.3593 ug/cm^2
[2]; inner skin, 4 hours, solution, clofazimine 100 mg in 99.9 g Oleic acid
  clofazimine content: 0.0577 ug/cm^2
[2]; inner skin, 4 hours, solution, clofazimine 100 mg in 99.9 g PEG 400
  clofazimine content: 0.1174 ug/cm^2
[2]; inner skin, 4 hours, solution, clofazimine 100 mg in 99.9 g Transuctol
  clofazimine content: 0.0596 ug/cm^2
[2]; inner skin, 4 hours, solution, clofazimine 100 mg in 99.9 g Tween 20
  clofazimine content: 0.0639 ug/cm^2
[2]; inner skin, 4 hours, solution, clofazimine 100 mg in 99.9 g Tween 80
  clofazimine content: 0.0660 ug/cm^2
